Measured values taken from patent US20150025233A1, “USE OF LIPID CONJUGATES IN THE TREATMENT OF DISEASES” (priority 2001, published 2015).
Read-outs that look alike come from different tables or passages of the source.

System: DTH-induced mice
Test: Dermal DTH response, oxalozone-induced ear swelling in mice (Experiments 5.1-5.4)
Format: in vivo, mouse
Details: for inhibition at 3 µmol/kg: Mus musculus
Protocol: Three modes of administration were performed: 1) The Lipid-conjugate in saline was injected intraperitoneally daily beginning day 0 until day 6 (Table 5.1); 2) The Lipid-conjugate in saline was injected subcutaneously into the ear (adjacent to the challenged area) in two injections, either 3 h before application of oxalozone to the ear or 1 h after application of oxalozone to the ear (Table 5.2); 3) EtOH:H2O 1:1 was applied topically to both ears on top of the challenged area daily beginning day 0 until day 6 (Table 5.3); 4) the Lipid-conjugate was applied topically only to the right ear for 5 times 4-6 hours following the challenge (Table 5.4) using either 20 μL of 0.1% DEXPE in 50% EtOH or 20 μl of Dermovat (steroid ointment). In all experiments control Group A (late sensitized only) was treated by topical application of oxalozone to both sides of the ear 24 hours before measuring its swelling. […] Of particular interest are the results presented in Table 5.4, showing that although the topical administration of the drug was unilateral in both cases, the steroid affected both ears, while the topically applied Lipid-conjugate affected only the area to which it was applied, indicative of a lack of systemic infiltration of the Lipid-conjugate in this context.

[1] = Intraperitoneal, fully sensitized, 5 mg (15 μmol/kg)
[2] = Subcutaneous, fully sensitized, 1 mg (3 μmol/kg)
[3] = Unilateral topical, on right ear only, 3 μmol/kg, dermovat

Question: Which results are given for `C[C@H]1C[C@H]2[C@@H]3CCC4=CC(=O)C=C[C@]4(C)[C@@]3(F)[C@@H](O)C[C@]2(C)[C@@]1(O)C(=O)CO` [betamethasone]?
Answer: Percent inhibition of ear swelling [1]: 74%; Swelling after sensitization - Swelling of normal ear, Mean ± S.D. (n = 12) [1]: 6.5 ± 1.35 0.1 mm; inhibition at 3 µmol/kg (Topical, fully sensitized, 3 μmol/kg, read-out: Percent inhibition of ear swelling): 60%; inhibition at 3 µmol/kg (Unilateral topical, on right ear only, 3 μmol/kg, dermovat, read-out: Percent inhibition, Left ear): 63%; inhibition at 3 µmol/kg (Unilateral topical, on right ear only, 3 μmol/kg, dermovat, read-out: Percent inhibition, Right ear): 63%; Percent inhibition of ear swelling [2]: 72%; Swelling after sensitization - Swelling of normal ear, Mean ± S.D. (n = 12) [2]: 8.1 ± 1.19 0.1 mm; Swelling after sensitization - Swelling of normal ear, Mean ± S.D. (n = 12) (Topical, fully sensitized, 3 μmol/kg): 10.6 ± 0.84 0.1 mm; Swelling after sensitization - Swelling of normal ear, Left ear, Mean ± S.D. (n = 10) [3]: 7.0 ± 1.0 0.1 mm; Swelling after sensitization - Swelling of normal ear, Right ear, Mean ± S.D. (n = 10) [3]: 7.0 ± 1.0 0.1 mm
